Test results published in publication PMC7658267, “Effects of CYP46A1 Inhibition on Long-Term-Depression in Hippocampal Slices ex vivo and 24S-Hydroxycholesterol Levels in Mice in vivo” (Frontiers in Molecular Neuroscience, 2020).
Like-named read-outs stand apart in the source and are kept apart here.

Assays:
Assay in all cases: biochemical
Human DOP = molecular target: T1, Human DOP (Homo sapiens, UniProt P41143); design: CEREP off-target binding panel, per cent inhibition at 10 uM, n = 2
T1 construct: gene OPRD1

Human 5-HT2B = molecular target: T2, Human 5-HT2B (Homo sapiens, UniProt P41595); design: CEREP off-target binding panel, per cent inhibition at 10 uM, n = 2
T2 construct: gene HTR2B

Human 5-HT7 = molecular target: T3, Human 5-HT7 (Homo sapiens, UniProt P34969); design: CEREP off-target binding panel, per cent inhibition at 10 uM, n = 2
T3 construct: gene HTR7

Human MC4 = molecular target: T4, Human MC4 (Homo sapiens, UniProt P32245); design: CEREP off-target binding panel, per cent inhibition at 10 uM, n = 2
T4 construct: gene MC4R

Human H1 = molecular target: T5, Human H1 (Homo sapiens, UniProt P35367); design: CEREP off-target binding panel, per cent inhibition at 10 uM, n = 2
T5 construct: gene HRH1

Human CB1 = molecular target: T6, Human CB1 (Homo sapiens, UniProt P21554); design: CEREP off-target binding panel, per cent inhibition at 10 uM, n = 2
T6 construct: gene CNR1

Human VPAC1 = molecular target: T7, Human VPAC1 (Homo sapiens, UniProt P32241); design: CEREP off-target binding panel, per cent inhibition at 10 uM, n = 2
T7 construct: gene VIPR1

Human 5-HT3 = molecular target: T8, Human 5-HT3 (Homo sapiens, UniProt P46098); design: CEREP off-target binding panel, per cent inhibition at 10 uM, n = 2
T8 construct: gene HTR3A

Human MOP = molecular target: T9, Human MOP (Homo sapiens, UniProt P35372); design: CEREP off-target binding panel, per cent inhibition at 10 uM, n = 2
T9 construct: gene OPRM1

Human H2 = molecular target: T10, Human H2 (Homo sapiens, UniProt P25021); design: CEREP off-target binding panel, per cent inhibition at 10 uM, n = 2
T10 construct: gene HRH2

Human GR = molecular target: T11, Human GR (Homo sapiens, UniProt P04150); design: CEREP off-target binding panel, per cent inhibition at 10 uM, n = 2
T11 construct: gene NR3C1

Human CXCR2 = Human CXCR2 (Homo sapiens, UniProt P25025); design: CEREP off-target binding panel, per cent inhibition at 10 uM, n = 2
Human AR = Human AR (Homo sapiens, UniProt P10275); design: CEREP off-target binding panel, per cent inhibition at 10 uM, n = 2
Human PR = molecular target: T12, Human PR (Homo sapiens, UniProt P06401); design: CEREP off-target binding panel, per cent inhibition at 10 uM, n = 2
T12 construct: gene PGR

Human NTS1 = molecular target: T13, Human NTS1 (Homo sapiens, UniProt P30989); design: CEREP off-target binding panel, per cent inhibition at 10 uM, n = 2
T13 construct: gene NTSR1

Human CCR1 = Human CCR1 (Homo sapiens, UniProt P32246); design: CEREP off-target binding panel, per cent inhibition at 10 uM, n = 2
Human 5-HT6 = molecular target: T14, Human 5-HT6 (Homo sapiens, UniProt P50406); design: CEREP off-target binding panel, per cent inhibition at 10 uM, n = 2
T14 construct: gene HTR6

Human NOP = molecular target: T15, Human NOP (Homo sapiens, UniProt P41146); design: CEREP off-target binding panel, per cent inhibition at 10 uM, n = 2
T15 construct: gene OPRL1

Human AT1 = molecular target: T16, Human AT1 (Homo sapiens, UniProt P30556); design: CEREP off-target binding panel, per cent inhibition at 10 uM, n = 2
T16 construct: gene AGTR1

Human A2A = molecular target: T17, Human A2A (Homo sapiens, UniProt P29274); design: CEREP off-target binding panel, per cent inhibition at 10 uM, n = 2
T17 construct: gene ADORA2A

Human M3 = molecular target: T18, Human M3 (Homo sapiens, UniProt P20309); design: CEREP off-target binding panel, per cent inhibition at 10 uM, n = 2
T18 construct: gene CHRM3

Human D2s = molecular target: T19, Human D2s (Homo sapiens, UniProt P14416); design: CEREP off-target binding panel, per cent inhibition at 10 uM, n = 2
T19 construct: gene DRD2; D2s

Human 5-HT1A = molecular target: T20, Human 5-HT1A (Homo sapiens, UniProt P08908); design: CEREP off-target binding panel, per cent inhibition at 10 uM, n = 2
T20 construct: gene HTR1A

Human EP4 = molecular target: T21, Human EP4 (Homo sapiens, UniProt P35408); design: CEREP off-target binding panel, per cent inhibition at 10 uM, n = 2
T21 construct: gene PTGER4

CYP2C8 = CYP2C8 (Homo sapiens, UniProt P10632); design: CYP off-target inhibition panel
Human Eta = molecular target: T22, Human Eta (Homo sapiens, UniProt P25101); design: CEREP off-target binding panel, per cent inhibition at 10 uM, n = 2
T22 construct: gene EDNRA

Sequence of Human AR (P10275 whole entry): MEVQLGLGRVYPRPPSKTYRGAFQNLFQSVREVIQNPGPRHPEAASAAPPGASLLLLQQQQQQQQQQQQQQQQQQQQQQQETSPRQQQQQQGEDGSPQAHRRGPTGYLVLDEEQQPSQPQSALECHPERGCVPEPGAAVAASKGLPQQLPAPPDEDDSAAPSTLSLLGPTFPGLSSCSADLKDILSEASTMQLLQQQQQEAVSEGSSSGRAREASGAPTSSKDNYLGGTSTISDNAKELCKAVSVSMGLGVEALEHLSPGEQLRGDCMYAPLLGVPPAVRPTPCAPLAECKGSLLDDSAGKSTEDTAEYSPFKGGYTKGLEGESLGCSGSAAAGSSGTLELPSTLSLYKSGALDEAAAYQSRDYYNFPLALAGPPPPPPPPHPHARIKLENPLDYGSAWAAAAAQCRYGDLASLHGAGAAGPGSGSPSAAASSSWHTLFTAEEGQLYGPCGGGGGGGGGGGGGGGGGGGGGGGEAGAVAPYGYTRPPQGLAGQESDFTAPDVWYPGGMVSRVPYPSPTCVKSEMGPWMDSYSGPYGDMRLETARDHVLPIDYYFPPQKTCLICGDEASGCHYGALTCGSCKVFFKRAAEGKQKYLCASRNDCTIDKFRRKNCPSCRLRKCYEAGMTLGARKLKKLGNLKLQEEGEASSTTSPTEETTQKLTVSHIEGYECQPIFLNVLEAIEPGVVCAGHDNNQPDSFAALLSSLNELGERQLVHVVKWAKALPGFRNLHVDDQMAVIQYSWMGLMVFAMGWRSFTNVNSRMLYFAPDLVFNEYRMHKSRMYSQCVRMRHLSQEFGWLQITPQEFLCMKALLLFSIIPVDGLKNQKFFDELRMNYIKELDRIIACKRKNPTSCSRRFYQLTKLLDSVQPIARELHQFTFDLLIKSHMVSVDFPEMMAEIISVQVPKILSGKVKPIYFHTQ
Sequence of CYP2C8 (P10632 whole entry): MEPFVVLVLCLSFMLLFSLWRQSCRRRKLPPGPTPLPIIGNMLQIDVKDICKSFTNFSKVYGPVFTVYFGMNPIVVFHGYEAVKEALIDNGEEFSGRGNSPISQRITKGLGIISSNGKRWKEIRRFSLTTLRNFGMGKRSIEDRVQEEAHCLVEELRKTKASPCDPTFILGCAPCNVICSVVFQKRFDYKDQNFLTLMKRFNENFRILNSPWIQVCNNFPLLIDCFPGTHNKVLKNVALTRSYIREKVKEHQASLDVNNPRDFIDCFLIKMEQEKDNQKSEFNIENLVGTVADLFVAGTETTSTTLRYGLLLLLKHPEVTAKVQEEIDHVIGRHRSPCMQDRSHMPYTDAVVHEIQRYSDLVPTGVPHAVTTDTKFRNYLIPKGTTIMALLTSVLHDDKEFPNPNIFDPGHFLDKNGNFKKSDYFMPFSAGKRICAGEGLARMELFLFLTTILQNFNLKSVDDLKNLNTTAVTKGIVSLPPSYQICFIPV
T3 sequence (P34969 whole entry): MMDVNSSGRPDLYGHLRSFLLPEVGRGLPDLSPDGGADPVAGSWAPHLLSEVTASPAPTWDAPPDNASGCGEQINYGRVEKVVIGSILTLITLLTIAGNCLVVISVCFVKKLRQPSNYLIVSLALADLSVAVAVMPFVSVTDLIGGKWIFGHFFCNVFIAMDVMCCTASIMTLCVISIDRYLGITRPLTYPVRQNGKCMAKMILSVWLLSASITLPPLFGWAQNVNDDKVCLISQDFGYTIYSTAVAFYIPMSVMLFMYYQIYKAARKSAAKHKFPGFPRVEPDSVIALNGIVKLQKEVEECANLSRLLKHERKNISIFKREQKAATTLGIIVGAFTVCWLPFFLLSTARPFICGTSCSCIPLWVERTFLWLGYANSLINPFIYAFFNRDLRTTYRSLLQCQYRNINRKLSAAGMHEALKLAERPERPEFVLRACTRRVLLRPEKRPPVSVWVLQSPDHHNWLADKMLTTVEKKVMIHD
T10 sequence (P25021 whole entry): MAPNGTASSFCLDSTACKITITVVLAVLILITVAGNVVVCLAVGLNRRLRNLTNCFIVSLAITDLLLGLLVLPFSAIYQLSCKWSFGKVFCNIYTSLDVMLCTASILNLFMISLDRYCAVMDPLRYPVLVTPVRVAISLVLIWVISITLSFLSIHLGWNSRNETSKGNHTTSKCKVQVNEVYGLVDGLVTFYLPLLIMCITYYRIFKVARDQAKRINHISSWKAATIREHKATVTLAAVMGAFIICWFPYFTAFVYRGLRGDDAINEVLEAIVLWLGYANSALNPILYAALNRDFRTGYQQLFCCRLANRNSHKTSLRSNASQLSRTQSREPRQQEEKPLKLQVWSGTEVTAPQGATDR
T17 sequence (P29274 whole entry): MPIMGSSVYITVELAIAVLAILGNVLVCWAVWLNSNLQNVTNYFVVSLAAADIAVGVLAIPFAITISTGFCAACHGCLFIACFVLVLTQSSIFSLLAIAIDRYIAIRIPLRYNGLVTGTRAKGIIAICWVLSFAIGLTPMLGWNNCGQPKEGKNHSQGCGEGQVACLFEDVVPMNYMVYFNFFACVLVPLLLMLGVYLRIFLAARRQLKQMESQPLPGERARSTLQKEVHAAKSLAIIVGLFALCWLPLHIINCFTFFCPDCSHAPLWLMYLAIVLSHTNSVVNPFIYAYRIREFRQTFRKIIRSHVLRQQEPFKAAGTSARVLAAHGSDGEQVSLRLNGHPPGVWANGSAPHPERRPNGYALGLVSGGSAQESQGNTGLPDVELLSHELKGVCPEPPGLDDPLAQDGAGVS
T20 sequence (P08908 whole entry): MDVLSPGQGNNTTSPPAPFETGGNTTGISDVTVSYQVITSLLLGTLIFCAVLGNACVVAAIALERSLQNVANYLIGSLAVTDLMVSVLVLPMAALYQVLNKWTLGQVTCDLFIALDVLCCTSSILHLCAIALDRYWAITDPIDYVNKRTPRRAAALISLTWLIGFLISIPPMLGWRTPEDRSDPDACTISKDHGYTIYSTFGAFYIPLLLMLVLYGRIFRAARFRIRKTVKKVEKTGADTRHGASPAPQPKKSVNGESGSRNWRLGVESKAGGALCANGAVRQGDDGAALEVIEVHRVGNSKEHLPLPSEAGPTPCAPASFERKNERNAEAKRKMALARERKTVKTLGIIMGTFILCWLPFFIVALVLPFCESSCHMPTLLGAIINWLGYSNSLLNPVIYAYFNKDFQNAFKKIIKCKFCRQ
T6 sequence (P21554 whole entry): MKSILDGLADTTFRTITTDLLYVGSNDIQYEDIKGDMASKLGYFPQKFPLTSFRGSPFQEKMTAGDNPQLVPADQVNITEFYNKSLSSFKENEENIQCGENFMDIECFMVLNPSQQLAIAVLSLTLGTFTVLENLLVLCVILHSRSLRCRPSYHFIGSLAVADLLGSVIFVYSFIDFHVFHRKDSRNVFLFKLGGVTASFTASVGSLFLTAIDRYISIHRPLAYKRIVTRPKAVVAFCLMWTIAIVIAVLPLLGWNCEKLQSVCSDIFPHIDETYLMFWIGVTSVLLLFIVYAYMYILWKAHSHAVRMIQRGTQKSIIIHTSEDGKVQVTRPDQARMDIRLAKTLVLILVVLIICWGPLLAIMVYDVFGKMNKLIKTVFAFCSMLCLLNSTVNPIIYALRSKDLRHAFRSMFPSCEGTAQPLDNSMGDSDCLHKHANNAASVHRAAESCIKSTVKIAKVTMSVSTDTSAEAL
T18 sequence (P20309 whole entry): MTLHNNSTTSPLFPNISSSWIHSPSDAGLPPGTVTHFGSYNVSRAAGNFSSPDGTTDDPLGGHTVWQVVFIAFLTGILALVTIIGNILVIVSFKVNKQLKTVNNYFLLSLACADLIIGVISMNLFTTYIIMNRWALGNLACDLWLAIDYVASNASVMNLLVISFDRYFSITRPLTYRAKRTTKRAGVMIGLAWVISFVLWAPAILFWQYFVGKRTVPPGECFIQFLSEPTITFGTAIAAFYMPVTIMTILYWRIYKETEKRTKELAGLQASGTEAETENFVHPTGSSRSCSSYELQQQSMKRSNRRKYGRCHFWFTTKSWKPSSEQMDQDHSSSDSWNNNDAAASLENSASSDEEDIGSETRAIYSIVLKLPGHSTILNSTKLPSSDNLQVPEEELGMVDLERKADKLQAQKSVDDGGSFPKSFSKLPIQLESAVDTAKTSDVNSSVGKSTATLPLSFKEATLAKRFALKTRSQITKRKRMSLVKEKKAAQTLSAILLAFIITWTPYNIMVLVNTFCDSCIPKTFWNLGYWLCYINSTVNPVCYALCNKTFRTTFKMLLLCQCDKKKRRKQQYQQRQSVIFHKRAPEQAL
Sequence of Human CXCR2 (P25025 whole entry): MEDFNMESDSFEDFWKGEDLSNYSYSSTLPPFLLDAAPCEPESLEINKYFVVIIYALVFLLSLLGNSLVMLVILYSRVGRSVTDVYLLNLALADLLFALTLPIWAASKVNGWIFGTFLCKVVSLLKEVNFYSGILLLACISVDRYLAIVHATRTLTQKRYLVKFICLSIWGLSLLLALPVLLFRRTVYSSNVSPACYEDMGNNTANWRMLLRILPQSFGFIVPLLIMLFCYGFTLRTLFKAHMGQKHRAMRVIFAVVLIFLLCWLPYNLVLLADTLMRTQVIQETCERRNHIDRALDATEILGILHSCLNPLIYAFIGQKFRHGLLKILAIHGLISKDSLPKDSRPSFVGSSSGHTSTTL
T2 sequence (P41595 whole entry): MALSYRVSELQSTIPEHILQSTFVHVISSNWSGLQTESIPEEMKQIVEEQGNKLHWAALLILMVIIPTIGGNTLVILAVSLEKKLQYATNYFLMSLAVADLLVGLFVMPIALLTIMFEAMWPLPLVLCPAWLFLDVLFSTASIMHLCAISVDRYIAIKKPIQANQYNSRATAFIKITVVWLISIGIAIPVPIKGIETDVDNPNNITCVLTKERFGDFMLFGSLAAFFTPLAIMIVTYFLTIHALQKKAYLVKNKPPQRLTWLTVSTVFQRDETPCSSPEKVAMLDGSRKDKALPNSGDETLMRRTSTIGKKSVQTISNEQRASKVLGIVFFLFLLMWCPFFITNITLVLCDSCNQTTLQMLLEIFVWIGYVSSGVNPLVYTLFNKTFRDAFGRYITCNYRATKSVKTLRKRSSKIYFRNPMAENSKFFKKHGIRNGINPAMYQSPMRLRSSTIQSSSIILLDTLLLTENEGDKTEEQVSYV

Compound | inhibition at 10 µM (Human DOP) | inhibition at 10 µM (Human 5-HT2B) | inhibition at 10 µM (Human 5-HT7) | inhibition at 10 µM (Human MC4) | inhibition at 10 µM (Human H1) | inhibition at 10 µM (Human CB1) | inhibition at 10 µM (Human VPAC1) | inhibition at 10 µM (Human 5-HT3) | inhibition at 10 µM (Human MOP) | inhibition at 10 µM (Human H2) | inhibition at 10 µM (Human GR) | inhibition at 10 µM (Human CXCR2) | inhibition at 10 µM (Human AR) | inhibition at 10 µM (Human PR) | inhibition at 10 µM (Human NTS1) | inhibition at 10 µM (Human CCR1) | inhibition at 10 µM (Human 5-HT6) | inhibition at 10 µM (Human NOP) | inhibition at 10 µM (Human AT1) | inhibition at 10 µM (Human A2A) | also measured
O=C(c1cnc2c(-c3cnco3)cc(C(F)(F)F)cn12)N1C2CCC1COC2 [compound 1, (3-oxa-8-azabicyclo[3.2.1]octan-8-yl)(8-(oxazol-5-yl)-6-(trifluoromethyl)imidazo[1,2-a]pyridin-3-yl)methanone] | -6.2% | -2.8% | 5.4% | 4.5% | -12.9% | -34.7% | 5.5% | 11% | -0.7% | -6.2% | -8.6% | -11.3% | -2% | 2% | -9.7% | 2.6% | -0.7% | 1.4% | -3.7% | 1.1% | inhibition at 10 µM (Human M3): -9.1%; inhibition at 10 µM (Human D2s): -15.2%; inhibition at 10 µM (Human 5-HT1A): 12.4%; inhibition at 10 µM (Human EP4): -22.4%; IC50 (CYP2C8): > 50 µM; inhibition at 10 µM (Human Eta): -25.8%
O=C(c1cccnc1-c1ccncn1)N1CCC(O)(Cc2ccc(F)cc2)CC1 [compound 2, (4-(4-fluorobenzyl)-4-hydroxypiperidin-1-yl)(2-(pyrimidin-4-yl)pyridin-3-yl)methanone] | -5.8% | -2.4% | 4.2% | 9.8% | -13.3% | -9.2% | -1.9% | 0.8% | 2.5% | -5.4% | -0.6% | -1.5% | 3.1% | -4.7% | -12.2% | -1.7% | 0.9% | 0.6% | -3.2% | -2.6% | inhibition at 10 µM (Human M3): 7.3%; inhibition at 10 µM (Human D2s): -15.4%; inhibition at 10 µM (Human 5-HT1A): 10.8%; inhibition at 10 µM (Human EP4): 1.8%; IC50 (CYP2C8; read-out: compound 2): > 50 µM; inhibition at 10 µM (Human Eta): -35.5%
